Read-outs that look alike come from different tables or passages of the source.
Columns and labels:
Assay in all cases: Glasshouse assay for herbicidal activity (pre- and post-emergence), percentage phytotoxicity
Format in all cases: in vivo
[1] = test system: Alopecurus myosuroides (ALOMY); conditions: Alopecurus myosuroides
Method in brief: (§1)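 Sow seed in standard soil in pots; apply test herbicide after 1 day (PRE) or about 12 days (POST). Grow on in the glasshouse, watering twice daily, cool-season species at 20/16 °C and warm-season at 24/18 °C. Score visible damage (0–100%) at 20 or 15 DAA respectively.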

Avena fatua (AVEFA) = conditions: Avena fatua
Method in brief: as §1

[2] = test system: Echinochloa crus-galli (ECHCG); conditions: Echinochloa crus-galli
Method in brief: as §1

Lolium perenne (LOLPE) = conditions: Lolium perenne
Method in brief: as §1

[3] = post-emergence, 360 h, post-emergence, 250 g/ha, 15 DAA, visual score (100%=total damage; 0%=no damage), read-out: ALOMY POST herbicidal activity (percentage phytotoxicity)
[4] = pre-emergence, 480 h, pre-emergence, 250 g/ha, 20 DAA, visual score (100%=total damage; 0%=no damage), read-out: ALOMY PRE herbicidal activity (percentage phytotoxicity)
[5] = post-emergence, 360 h, post-emergence, 250 g/ha, 15 DAA, visual score (100%=total damage; 0%=no damage), read-out: AVEFA POST herbicidal activity (percentage phytotoxicity)
[6] = pre-emergence, 480 h, pre-emergence, 250 g/ha, 20 DAA, visual score (100%=total damage; 0%=no damage), read-out: AVEFA PRE herbicidal activity (percentage phytotoxicity)
[7] = post-emergence, 360 h, post-emergence, 250 g/ha, 15 DAA, visual score (100%=total damage; 0%=no damage), read-out: ECHCG POST herbicidal activity (percentage phytotoxicity)
[8] = pre-emergence, 480 h, pre-emergence, 250 g/ha, 20 DAA, visual score (100%=total damage; 0%=no damage), read-out: ECHCG PRE herbicidal activity (percentage phytotoxicity)
[9] = post-emergence, 360 h, post-emergence, 250 g/ha, 15 DAA, visual score (100%=total damage; 0%=no damage), read-out: LOLPE POST herbicidal activity (percentage phytotoxicity)
[10] = pre-emergence, 480 h, pre-emergence, 250 g/ha, 20 DAA, visual score (100%=total damage; 0%=no damage), read-out: LOLPE PRE herbicidal activity (percentage phytotoxicity)

CCSC(=O)OC1=C(c2c(C)cc(-c3ncc(Cl)cn3)cc2C)C(=O)C(CC(=O)NC(C)(C)C)C1 (centres unmarked) [Compound P5]
pest or weed control at 250 g/ha [1, 3]: 100% | pest or weed control at 250 g/ha [1, 4]: 100% | pest or weed control at 250 g/ha (Avena fatua (AVEFA); [5]): 100% | pest or weed control at 250 g/ha (Avena fatua (AVEFA); [6]): 90% | pest or weed control at 250 g/ha [2, 7]: 100% | pest or weed control at 250 g/ha [2, 8]: 100% | pest or weed control at 250 g/ha (Lolium perenne (LOLPE); [9]): 100% | pest or weed control at 250 g/ha (Lolium perenne (LOLPE); [10]): 100%

COc1ccc(CNC(=O)CC2CC(=O)C(c3c(C)cc(-c4ccc(Cl)cn4)cc3C)C2=O)cc1 (centres unmarked) [Compound B380]
pest or weed control at 250 g/ha ([1]; post-emergence, 360 h, Rate 250 g/ha, post-emergence, visual assessment 15 DAA, 100%=total damage, 0%=no damage, read-out: Post-emergence herbicidal activity (percentage phytotoxicity) ALOMY POST): 70% | pest or weed control at 250 g/ha ([1]; pre-emergence, 480 h, Rate 250 g/ha, pre-emergence, visual assessment 20 DAA, 100%=total damage, 0%=no damage, read-out: Pre-emergence herbicidal activity (percentage phytotoxicity) ALOMY PRE): 70% | pest or weed control at 250 g/ha (Avena fatua (AVEFA); post-emergence, 360 h, Rate 250 g/ha, post-emergence, visual assessment 15 DAA, 100%=total damage, 0%=no damage, read-out: Post-emergence herbicidal activity (percentage phytotoxicity) AVEFA POST): 90% | pest or weed control at 250 g/ha (Avena fatua (AVEFA); pre-emergence, 480 h, Rate 250 g/ha, pre-emergence, visual assessment 20 DAA, 100%=total damage, 0%=no damage, read-out: Pre-emergence herbicidal activity (percentage phytotoxicity) AVEFA PRE): 80% | pest or weed control at 250 g/ha ([2]; post-emergence, 360 h, Rate 250 g/ha, post-emergence, visual assessment 15 DAA, 100%=total damage, 0%=no damage, read-out: Post-emergence herbicidal activity (percentage phytotoxicity) ECHCG POST): 100% | pest or weed control at 250 g/ha ([2]; pre-emergence, 480 h, Rate 250 g/ha, pre-emergence, visual assessment 20 DAA, 100%=total damage, 0%=no damage, read-out: Pre-emergence herbicidal activity (percentage phytotoxicity) ECHCG PRE): 90% | pest or weed control at 250 g/ha (Lolium perenne (LOLPE); post-emergence, 360 h, Rate 250 g/ha, post-emergence, visual assessment 15 DAA, 100%=total damage, 0%=no damage, read-out: Post-emergence herbicidal activity (percentage phytotoxicity) LOLPE POST): 90% | pest or weed control at 250 g/ha (Lolium perenne (LOLPE); pre-emergence, 480 h, Rate 250 g/ha, pre-emergence, visual assessment 20 DAA, 100%=total damage, 0%=no damage, read-out: Pre-emergence herbicidal activity (percentage phytotoxicity) LOLPE PRE): 80%

CCCN(CC)C(=O)CC1CC(=O)C(c2c(C)cc(C)cc2C)C1=O (centres unmarked) [Compound A171]
pest or weed control at 250 g/ha [1, 3]: 70% | pest or weed control at 250 g/ha [1, 4]: 60% | pest or weed control at 250 g/ha (Avena fatua (AVEFA); [5]): 70% | pest or weed control at 250 g/ha (Avena fatua (AVEFA); [6]): 20% | pest or weed control at 250 g/ha [2, 7]: 70% | pest or weed control at 250 g/ha [2, 8]: 80% | pest or weed control at 250 g/ha (Lolium perenne (LOLPE); [9]): 80% | pest or weed control at 250 g/ha (Lolium perenne (LOLPE); [10]): 70%

CCC(C)NC(=O)CC1CC(=O)C(c2c(C)cc(Br)cc2C)C1=O (centres unmarked) [Compound B120]
pest or weed control at 250 g/ha ([1]; post-emergence, 360 h, 250 g/ha, post-emergence, 15 DAA, visual assessment (100%=total damage, 0%=no damage), read-out: Post-emergence herbicidal activity (percentage phytotoxicity) ALOMY POST): 80% | pest or weed control at 250 g/ha ([1]; pre-emergence, 480 h, 250 g/ha, pre-emergence, 20 DAA, visual assessment (100%=total damage, 0%=no damage), read-out: Pre-emergence herbicidal activity (percentage phytotoxicity) ALOMY PRE): 80% | pest or weed control at 250 g/ha (Avena fatua (AVEFA); post-emergence, 360 h, 250 g/ha, post-emergence, 15 DAA, visual assessment (100%=total damage, 0%=no damage), read-out: Post-emergence herbicidal activity (percentage phytotoxicity) AVEFA POST): 90% | pest or weed control at 250 g/ha (Avena fatua (AVEFA); pre-emergence, 480 h, 250 g/ha, pre-emergence, 20 DAA, visual assessment (100%=total damage, 0%=no damage), read-out: Pre-emergence herbicidal activity (percentage phytotoxicity) AVEFA PRE): 70% | pest or weed control at 250 g/ha ([2]; post-emergence, 360 h, 250 g/ha, post-emergence, 15 DAA, visual assessment (100%=total damage, 0%=no damage), read-out: Post-emergence herbicidal activity (percentage phytotoxicity) ECHCG POST): 80% | pest or weed control at 250 g/ha ([2]; pre-emergence, 480 h, 250 g/ha, pre-emergence, 20 DAA, visual assessment (100%=total damage, 0%=no damage), read-out: Pre-emergence herbicidal activity (percentage phytotoxicity) ECHCG PRE): 80% | pest or weed control at 250 g/ha (Lolium perenne (LOLPE); post-emergence, 360 h, 250 g/ha, post-emergence, 15 DAA, visual assessment (100%=total damage, 0%=no damage), read-out: Post-emergence herbicidal activity (percentage phytotoxicity) LOLPE POST): 90% | pest or weed control at 250 g/ha (Lolium perenne (LOLPE); pre-emergence, 480 h, 250 g/ha, pre-emergence, 20 DAA, visual assessment (100%=total damage, 0%=no damage), read-out: Pre-emergence herbicidal activity (percentage phytotoxicity) LOLPE PRE): 90%

— patent US10206394B2, “Herbicidal compounds” (Syngenta Participations AG, priority 2014, dated 2019)
